Test results reported in patent US7320806B2, “Compositions and methods for treating NIDDM and other conditions and disorders associated with AMPK regulation” (priority 2003, dated 2008).
Entries after “also recorded” stand apart in the source; their conditions may differ.

How the values were obtained:
[1] = tested on: AMPK alpha2; settings: treatment for 10 weeks; cited from earlier work
[2] = tested on: L6 muscle cells; experiment: glucose uptake (2-NBDG) in L6 myotubes; type: cell-based
Method: The permeate portion of GMM was tested for glucose uptake in L6 muscle cells. L6 cells were grown as monolayers in Dulbecco's modified Eagle's medium (DMEM) containing 1 mM glutamine, 1 mM pyruvate and 25 mM glucose. The medium was supplemented with 5% fetal calf serum (FCS). Experiments were undertaken in 48-well plates seeded from pre-confluent flasks with 50 000 cells per well. The cells were grown to confluence and the medium was changed to DMEM containing 0.5% FCS and 2.5 mM glucose (L6 Myo Medium) for at least 76 hrs to induce differentiation of L6 cells and formation of L6 myotubes. Myotubes were then incubated with test substances for 30 minutes—Protocol SMM, or in Dulbecco's PBS supplemented with 20 mM Hepes and 2 mM glucose without serum—Serum-free Medium (SFM) Protocol as described by Fryer et al. (Activation of glucose transport by AMP-activated protein kinase via stimulation of Nitric oxide synthase, Diabetes, 49(12), 1978-85, 2000, Fryer LGD, et al, herein incorporated by reference in its entirety.).
Next, 30 uM of 2-NBDG was added for 2 minutes at 22 C. Subsequently, cell culture medium was removed and cells were washed twice with cold DPBS. Then, cells were lysed in 0.5% SDS. Fluorescence was measured at 466/542 nm (excitation/emission) using 100 ul of cell lysate in 2 ml of water.
Cells were cultured, and treated in L6 Myo Medium (SSM)—SSM Protocol or in serum-free medium (SFM—DPBS containing 20 mM Hepes, 2 mM glucose)—SFM Protocl as described by Fryer et al. Glucose uptake was measured by adding 30 uM of 2-NBDG for 2′ at 22 C. Experiments were performed in duplicates.
L-NMMA has been used in the experiment to verify whether GMM-induced glucose transport in L6 cells is or is not inhibited by NOS inhibitors, thus mimicking AICAR-induced mechanism of increased glucose transport. […]
In FIG. 14, permeate cells were tested to determine whether permeate-induced glucose uptake could be inhibited by L-NMMA at the same concentration as that used for inhibition of the AICA effect on glucose uptake. […] Glucose uptake was measured at 22 C for 2 minutes.

[3] = tested on: AMPK; settings: cited from earlier work
[4] = tested on: hippocampal neurons; settings: glucose deprivation, chemical hypoxia, glutamate, amyloid beta-peptide; cited from earlier work
[5] = administered before ischemia; cited from earlier work
[6] = tested on: 3T3-L1 adipocytes; settings: added at an early phase of differentiation; cited from earlier work
[7] = tested on: astrocytes; settings: incubation of astrocytes; cited from earlier work
[8] = chronic administration; cited from earlier work
[9] = tested on: rat epitrochlearis muscles; settings: 30 microU/ml insulin, treated 3.5 h previously; cited from earlier work

CN(C)C(=N)N=C(N)N [Metformin, metformin]
AMPK alpha2 activity in the skeletal muscle [1]: significantly increased

insulin
glucose uptake increase ([2]; culture medium supplemented with 0.5% FCS (SSM)): 100-120%
glucose uptake increase ([2]; serum-free medium (DPBS)): 40-50%

CC(=O)O.CNC(=N)NCCC[C@H](N)C(=O)O [L-NMMA, NG-methyl-L-arginine, acetate salt]
effect on permeate/GMM-induced glucose uptake ([2]; L-NMMA 300 uM, 30 minutes pre-treatment in DPBS, acetate salt): inhibits; also recorded: blocks

NC(=O)c1ncn([C@@H]2O[C@H](COP(=O)(O)O)[C@@H](O)[C@H]2O)c1N [AICAR, 5′-aminoimidazole 4-carboxamide 1-ribonucleotide]
increase in AMPK activity over the resting level [3]: two- to three-fold increase
neuronal death [4]: protected hippocampal neurons against death
energy metabolism and hepatic injury [5]: simulated the benefits of preconditioning
differentiation of 3T3-L1 adipocytes [6]: inhibit the differentiation
ketogenesis from palmitate and carnitine palmitoyltransferase I [7]: stimulate
GLUT4 protein expression [8]: enhance
HDL cholesterol levels [8]: increased
fasting concentrations of glucose and insulin [8]: decreased
lowering of systolic blood pressure [8]: 14.6+/−4.3 mmHg
oral glucose tolerance test [8]: normalized
plasma triglyceride levels [8]: significantly reduced
increase in glucose transport in response to insulin versus untreated control muscles [9]: about twofold greater
